Results on 24 molecules are retold here after ChEMBL document CHEMBL3638482, “2,3-disubstituted pyrazinesulfonamides as CRTH2 inhibitors” (2014).

The structures appear in SMILES notation.

This test deals with T1, Prostaglandin D2 receptor 2 (Homo sapiens, UniProt Q9Y5Y4).
T1 sequence (Q9Y5Y4 whole entry): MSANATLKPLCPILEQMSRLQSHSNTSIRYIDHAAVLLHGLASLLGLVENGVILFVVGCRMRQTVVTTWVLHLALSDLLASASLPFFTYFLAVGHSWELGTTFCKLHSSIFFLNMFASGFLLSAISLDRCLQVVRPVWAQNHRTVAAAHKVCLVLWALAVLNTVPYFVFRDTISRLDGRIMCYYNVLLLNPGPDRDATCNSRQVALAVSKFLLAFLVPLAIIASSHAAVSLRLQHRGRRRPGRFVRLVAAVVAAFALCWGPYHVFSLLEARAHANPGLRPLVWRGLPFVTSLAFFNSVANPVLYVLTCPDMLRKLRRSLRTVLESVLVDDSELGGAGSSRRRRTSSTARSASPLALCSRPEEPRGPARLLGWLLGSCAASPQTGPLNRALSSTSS
In words: The inhibitory activity can be investigated by a radioligand binding assay (Sawyer et al., Br. J. Pharmocol 2002, 137, 1163-72). The radioligand binding assay was performed at room temperature in binding buffer (10 mM HEPES/KOH pH […], with protease inhibitor cocktail tablets), containing 1.5 nM [3H]PGD2 (Amersham, 156 Cie/mmol), and 10 ug of hCRTH2 HEK293 (EBNA) cell membrane protein in a final volume of 100 ul in 96 well plates (Corning, USA). Non-specific binding was determined in the presence of 1 uM PGD2 (Cayman, USA). Competing pyrazine sulfonamides were diluted in dimethylsulphoxide so that the total volume of dimethylsulfoxide was kept constant at 1% dimethylsulphoxide (Me2SO). 10 ul of the pyrazine sulfonamides were added. Incubation (60 min at room temperature) was terminated by rapid filtration through 96 wells hydrophobic GF/C Unifilter plates.
One may read the Ki as the dissociation constant of the complex between target and ligand, obtained from inhibition or displacement. As for `N#Cc1ccc(OCc2ccc(-c3nccnc3NS(=O)(=O)c3ccccc3C(F)(F)F)cc2)cc1`, the Ki was determined as 1590 nM.

With `CN(Cc1ccc(-c2nccnc2NS(=O)(=O)c2ccccc2C(F)(F)F)cc1)c1ccc(C#N)cc1`, the Ki was found to be 470 nM.

In the case of `O=S(=O)(Nc1nccnc1-c1ccc(COc2ccc(F)cc2)cc1)c1ccccc1C(F)(F)F`, the Ki came to 480 nM.

With `CCN(Cc1ccc(-c2nccnc2NS(=O)(=O)c2ccccc2C(F)(F)F)cc1)c1ccccc1`, the Ki was found to be 590 nM.

On to `O=S(=O)(Nc1nccnc1-c1ccc(CN2CCOc3ccccc32)cc1)c1ccccc1C(F)(F)F`, for which the Ki amounted to 620 nM.

Turning to `CN(Cc1ccc(-c2nccnc2NS(=O)(=O)c2ccccc2C(F)(F)F)cc1)c1cccc(F)c1`, the Ki came to 700 nM.

Take `O=S(=O)(Nc1nccnc1-c1ccc(COc2ccc(Cl)nc2)cc1)c1ccccc1C(F)(F)F`: the Ki worked out at 720 nM.

For `O=S(=O)(Nc1nccnc1-c1ccc(Cn2c(-c3ccccn3)cc3ccccc32)cc1)c1ccccc1C(F)(F)F`, the Ki is 850 nM.

`O=S(=O)(Nc1nccnc1-c1ccc(Cn2ccc3cc(F)ccc32)cc1)c1ccccc1C(F)(F)F`: the Ki worked out at 950 nM.

Turning to `O=S(=O)(Nc1nccnc1-c1ccc(COc2ccccc2)cc1)c1ccccc1C(F)(F)F`, the Ki worked out at 1320 nM.

With `CN(Cc1ccc(-c2nccnc2NS(=O)(=O)c2ccccc2C(F)(F)F)cc1)c1ccc(Cl)cc1`, the Ki is 1470 nM.

With `CN(Cc1ccc(-c2nccnc2NS(=O)(=O)c2ccccc2Cl)cc1)c1ccc(C#N)cc1`, the Ki came out at 1490 nM.

On to `CN(Cc1ccc(-c2nccnc2NS(=O)(=O)c2ccccc2C(F)(F)F)cc1)c1ccc(Cl)c(Cl)c1`, for which the Ki worked out at 1580 nM.

As to `O=S(=O)(Nc1nccnc1-c1ccc(Cn2ccc3ccc(F)cc32)cc1)c1ccccc1C(F)(F)F`, the Ki was 1930 nM.

Consider `COc1ccc2c(c1)cc(C)n2Cc1ccc(-c2nccnc2NS(=O)(=O)c2ccccc2Cl)cc1`, for which the Ki amounted to 2210 nM.

For the molecule `COc1ccc(OCc2ccc(-c3nccnc3NS(=O)(=O)c3ccccc3C(F)(F)F)cc2)cc1`, the Ki is 2600 nM.

For the molecule `O=S(=O)(Nc1nccnc1-c1ccc(CN(Cc2ccccc2)c2ccccn2)cc1)c1ccccc1Cl`, the Ki was determined as 2640 nM.

With `O=S(=O)(Nc1nccnc1-c1ccc(CN2CCc3ccccc32)cc1)c1ccccc1C(F)(F)F`, the Ki was determined as 2690 nM.

As to `CN(Cc1ccc(-c2nccnc2NS(=O)(=O)c2ccccc2C(F)(F)F)cc1)c1ccc(Cl)cc1Cl`, the Ki stood at 2820 nM.

Regarding `O=S(=O)(Nc1nccnc1-c1ccc(COc2cccc(Cl)c2)cc1)c1ccccc1C(F)(F)F`, the Ki was 2900 nM.

As for `CN(Cc1ccc(-c2nccnc2NS(=O)(=O)c2ccccc2Cl)cc1)c1ccc(F)cc1F`, the Ki came to 2950 nM.

As for `Cc1cc2ccccc2n1Cc1ccc(-c2nccnc2NS(=O)(=O)c2ccccc2C(F)(F)F)cc1`, the Ki worked out at 3060 nM.

For the molecule `O=S(=O)(Nc1nccnc1-c1ccc(CN(Cc2ccccc2)c2ccccn2)cc1)c1ccccc1C(F)(F)F`, the Ki is 4440 nM.

For `Cc1cc2cc(Cl)ccc2n1Cc1ccc(-c2nccnc2NS(=O)(=O)c2ccccc2C(F)(F)F)cc1`, the Ki is 4650 nM.
